Results published in patent US20220023269A1, “Methods Of Treating Diabetes In Severe Insulin-Resistant Diabetic Subjects” (Balticgruppen Bio AB, priority 2018, published 2022).

Key:
[1] = system: PP2C-mediated dephosphorylation of p-T172 of human recombinant AMPKα, -β, and -γ trimers; experiment: AMPK in vitro de-phosphorylation assay; type: biochemical; conditions: with 150 μM ADP
Method: (§1) AMPKα2/β1/γ1 trimer (Life Technologies #PV4674, Lot 1261361B) (1 ng/μl) was incubated with 10 μM test material, 20 μM test material or 150 μM ADP (Sigma #A2754) +/−1 mM ATP (Sigma #A1852-1VL) in buffer (40 mM Hepes, 0.5 mM DTT, 0.2 mg/ml Gelatin (Sigma #G7041) and 0.4% DMSO), +/−PP2Ca (0.25-0.75 ng/μl) (Abcam ab51205-100; Lot GR54133-5) and 5 mM MnCl2 (total volume 20 μl). AMPKα2/β1/γ1+/−ATP was preincubated with the test material and ADP for 2 minutes at 30° C. before addition of PP2C/MnCl2 to start the dephosphorylation reaction which continued for 10-15 minutes at 30° C. Reactions were terminated by the addition of 0.17% BSA, 13 mM EDTA, 1.3×XT Sample buffer and 0.67% β-Mercaptoethanol in PBS. Samples were placed on ice, 5 minutes, heated at 100° C. for 5 minutes and chilled before run on a western gel. All steps were performed in high quality low-protein-binding eppendorf tubes. In a separate experiment 10 μM test material, 20 μM test material, 150 μM ADP alone or the combination of 10 μM test material+150 μM ADP and 20 μM test material+150 μM ADP was incubated with 1 ng/μl of AMPKα2/β1/γ1 or AMPKα1/β1/γ1 (Life Technologies #PV4672) trimer in buffer (40 mM Hepes, 0.5 mM DTT, 0.2 mg/ml gelatin and 0.4% DMSO)+/−0.25-0.5 ng/μl PP2Ca and 5 mM MnCl2 or 5 mM MgCl2. AMPK was sequentially preincubated with the test material and ADP or the combination for 2 minutes at 30° C. before sequential addition of PP2C/MnCl2 or PP2C/MgCl2 to start the dephosphorylation reaction which continued for 5-15 minutes at 30° C. The reaction was thereafter terminated and analysed as above.

[2] = target: T1, PP2C-mediated dephosphorylation of p-T172 of human recombinant AMPKα, -β, and -γ trimers (Homo sapiens, UniProt P54619+P54646+Q9Y478); experiment: AMPK in vitro de-phosphorylation assay; type: biochemical
T1 construct: purchased Life Technologies (AMPK trimer); Abcam (PP2Ca) PV4674 (Lot 1261361B); ab51205-100 (Lot GR54133-5)
Method: as §1

[3] = system: AMPK in Wi-38 human lung fibroblast cells; experiment: AMPK activation assay in Wi-38 cells (immunoblot); type: cell-based; conditions: 2.5, 5 or 10 μM, 16 hours; dose-dependent
Method: All cell lines were lysed in 0.1 M Tris-HCl, pH 6.8, 2% SDS, 10 mM sodium fluoride (SIGMA #S7920), 10 mM β-glycerophosphate (SIGMA #G6376), and 1 mM sodium vanadate (SIGMA #72060) and supernatant collected after 1 minute at 14,000 rpm. Islets (human and mouse) were lysed in 0.1 M Tris-HCl, pH 6.8, 2% SDS, protease inhibitor (Roche #04 693 124 001) and phosphatase inhibitor (Roche #04 906 837 001). Right calf muscle, heart, iWAT, and interscapular BAT was crushed in a pestle using liquid nitrogen and homogenised in ice cold RIPA buffer (150 mM sodium chloride (SIGMA #S7653), 1.0% NP40 (USB), 0.5% sodium deoxycholate (SIGMA #D6750), 0.1% SDS, 50 mM Tris pH 8.0, 20 mM sodium pyrophosphate (SIGMA #71515), 10 mM sodium fluoride, 10 mM β-glycerolphosphate, 1 mM sodium vanadate and protease inhibitor cocktail (Roche #04693124001), 1 tablet/10 ml lysis buffer). The supernatant was collected after 2 min at 14,000 rpm. This procedure was repeated until all fat was eliminated and the supernatant was clear, at 4° C. Samples were analysed on 4-15% polyacrylamide gels. Values were normalised toward AMPKα, β-Actin, GAPDH or the respective non-phosphorylated counterpart.
Table 3 contains origin of cell lines, growth conditions and settings for activation of AMPK via the test material. […]

[4] = system: CBA mice on HFD; experiment: Arginine-stimulated insulin secretion; type: in vivo; conditions: 0.8 mg/g in HFD, 11 w; arginine 1 g/kg i.p.
Method: Arginine-stimulated insulin secretion was determined following i.p. injection of arginine (SIGMA #A5131) (1 g/kg body weight) in non-fasted 21 weeks old CBA mice that had been on HFD or test material-HFD (0.8 mg/g) for 11 w. Blood glucose was measured using Glucometer (Ultra 2, One Touch) and plasma insulin analysed via the ultrasensitive mouse insulin ELISA kit (Chrystal Chem Inc. #90080). Area under the Curve (AUC) was calculated according to the trapezoid rule.

T1 sequence (P54646 whole entry): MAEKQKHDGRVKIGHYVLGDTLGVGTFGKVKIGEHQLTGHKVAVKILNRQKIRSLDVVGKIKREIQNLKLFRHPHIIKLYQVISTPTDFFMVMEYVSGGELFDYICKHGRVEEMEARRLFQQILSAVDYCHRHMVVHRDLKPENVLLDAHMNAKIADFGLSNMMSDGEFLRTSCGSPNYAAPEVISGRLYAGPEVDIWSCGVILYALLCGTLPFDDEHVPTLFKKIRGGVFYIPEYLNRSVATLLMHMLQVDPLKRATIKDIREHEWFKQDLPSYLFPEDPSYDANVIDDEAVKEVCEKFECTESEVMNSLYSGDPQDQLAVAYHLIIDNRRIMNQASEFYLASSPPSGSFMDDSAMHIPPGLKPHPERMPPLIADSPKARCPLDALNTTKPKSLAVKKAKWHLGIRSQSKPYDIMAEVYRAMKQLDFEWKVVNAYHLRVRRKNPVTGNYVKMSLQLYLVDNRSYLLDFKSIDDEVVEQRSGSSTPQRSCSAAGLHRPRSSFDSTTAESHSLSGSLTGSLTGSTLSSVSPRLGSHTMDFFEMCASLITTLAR
T1 sequence (Q9Y478 2-270): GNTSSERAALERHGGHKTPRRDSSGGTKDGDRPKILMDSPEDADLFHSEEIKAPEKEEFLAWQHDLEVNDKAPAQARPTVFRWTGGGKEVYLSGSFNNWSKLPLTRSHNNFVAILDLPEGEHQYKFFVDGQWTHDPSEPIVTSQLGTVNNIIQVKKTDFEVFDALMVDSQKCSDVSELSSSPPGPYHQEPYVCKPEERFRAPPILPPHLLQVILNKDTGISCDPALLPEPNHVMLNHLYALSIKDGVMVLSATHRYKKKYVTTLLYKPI
T1 sequence (P54619 whole entry): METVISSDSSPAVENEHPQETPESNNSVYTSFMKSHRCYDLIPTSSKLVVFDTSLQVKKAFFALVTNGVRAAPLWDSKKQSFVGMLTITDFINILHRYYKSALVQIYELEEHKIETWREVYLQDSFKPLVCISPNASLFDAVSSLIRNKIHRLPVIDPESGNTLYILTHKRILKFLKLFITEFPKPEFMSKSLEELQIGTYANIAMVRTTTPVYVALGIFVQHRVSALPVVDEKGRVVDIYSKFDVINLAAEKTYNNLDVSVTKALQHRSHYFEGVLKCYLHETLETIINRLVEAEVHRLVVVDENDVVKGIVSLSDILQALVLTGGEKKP

O=C(Nc1nc(=O)n(Cc2ccc(Cl)cc2)s1)c1ccc(Cl)cc1 [test material, 4-chloro-N-[2-[(4-chlorophenyl)methyl]-3-oxo-1,2,4-thiadiazol-5-yl]benzamide]
effect together with ADP on pAMPK dephosphorylation [1]: acted in an additive manner with ADP | PP2C-mediated dephosphorylation of p-T172 AMPK ([2]; absence of ATP): suppressed | dephosphorylation of pAMPK ([2]; presence of excess ATP (1.0 mM)): protected pAMPK from dephosphorylation | levels of pAMPK (p-T172) [3]: increased | p-S79 ACC (pACC) levels [3]: increased | arginine stimulation of insulin secretion, increase vs HFD [4]: 2 fold
